According to US20240358693A1, “METHODS OF TREATING PAIN” (Aisa Pharma, Inc., priority 2023, published 2024):

Tested on: participants with SSc-RP
Test: Scleroderma Health Assessment Questionnaire (SHAQ): disability indices and visual analog scales
Format: in vivo, human
Details: Part A, sensitivity analysis
Source text: The standard, validated, patient reported outcome measures tool for SSc patients, the Scleroderma Health Assessment Questionnaire (SHAQ), will be used to assess the participant qualify of life. Details are attached in the Appendix. The participant quality of life will be scored, and a disability index calculated for each questionnaire completed by the patient at Screening and each in-clinic visit. The absolute change in participant quality of life from baseline to the end of each dosing period will be calculated similar to frequency data as before.
The SHAQ includes a Raynaud's VAS, which will be reported at screening and each in-clinic visit. The absolute change in Raynaud-VAS, assessed by the participants response to the SHAQ question ‘In the past 7 days, how much have your Raynaud's interfered with your daily activities?’ at baseline and the end of each dosing period will be calculated similar to frequency data as before.
The SHAQ is used to calculate a Disability Index to assess the participant qualify of life. The eight categories assessed by the Disability Index are 1) dressing and grooming, 2) arising, 3) eating, 4) walking, 5) hygiene, 6) reach, 7) grip, and 8) common daily activities. For each of these categories, patients report the amount of difficulty they have in performing two or three specific activities.
There are four possible responses for the Disability Index questions: • Without any difficulty=0 • With some difficulty=1 • With much difficulty=2 • Unable to do=3. • The highest score reported by the patient for any component question of the eight categories determines the score for that category. • If a component question is left blank or the response is too ambiguous to assign a score, then the score for that category is determined by the remaining completed question(s). • If all component questions are blank or if more than one answer is given, then follow up with the respondent is required. • If the respondent's mark is between the response columns, then move it to the closest one. If it's directly between the two, move it to the higher one.
Each of the disability items on the SHAQ has a companion aids/devices variable that is used to record what type(s) of assistance, if any, the participant uses for his/her usual activities. These variables (see below) are coded as follows: • 0=No assistance is needed. • 1=A special device is used by the patient in his/her usual activities. • 2=The patient usually needs help from another person. • 3=The patient usually needs BOTH a special device AND help from another person.
The scoring variables and scoring rules permit the computation of two disability indices, the Standard Disability Index and the Alternative Disability Index.
This question results in a new set of category scores that are computed by adjusting the score for each category, if necessary, based on the patient's use of an aid or device or assistance for that category. If either devices and/or help from another person are checked for a category, the score is set to “2”, unless the score is already “3” (i.e., scores of “0” or “1” are increased to “2”). For example, if the highest score for the dressing category is “1”, and the patient says they use a device for dressing, the computed category score would be “2”. The sum of the computed categories scores is then calculated and divided by the number of categories answered. This gives a score in the 0 to 3 range.
The aid and device variables are not used to calculate the alternative disability index; it is calculated by adding the scores for each of the categories and dividing by the number of categories answered. This gives a score in the 0 to 3 range.
The standard, validated, patient reported outcome measures tool for SSc patients, the SHAQ, was collected at the time points specified in the study schedules (FIG. 2 and FIGS. 4A and 4B) to assess the participant's quality of life. The SHAQ included a Raynaud's VAS that will also be reported separately.

[1] = PP Population, pooled cilnidipine 10 mg and 20 mg arms (plus tadalafil 5 mg where labelled)
[2] = Pooled Cilnidipine 10 mg and Cilnidipine 10 mg + Tadalafil 5 mg (N = 9), Modified ITT

## COCCOC(=O)C1=C(C)NC(C)=C(C(=O)OC/C=C/c2ccccc2)C1c1cccc([N+](=O)[O-])c1 (centres unmarked) [Cilnidipine, cilnidipine]
[1]
  SHAQ Alternative Disability Index: Baseline, Mean: 0.359
  SHAQ Alternative Disability Index: Baseline, Median: 0.250
  SHAQ Alternative Disability Index: Change from Baseline (Day 12), Mean: 0.031
  SHAQ Alternative Disability Index: Change from Baseline (Day 12), Median: 0.000
  SHAQ Alternative Disability Index: In-Clinic Visit (Day 12), Mean: 0.391
  SHAQ Alternative Disability Index: In-Clinic Visit (Day 12), Median: 0.188
  SHAQ Alternative Disability Index: Percent Change from Baseline (Day 12), Mean: 9.68%
  SHAQ Alternative Disability Index: Percent Change from Baseline (Day 12), Median: −11.11%
[2]
  SHAQ Standard Disability Index: Baseline, Mean: 0.597
  SHAQ Standard Disability Index: Baseline, Median: 0.500
  SHAQ Standard Disability Index: Change from Baseline, Mean: −0.021
  SHAQ Standard Disability Index: Change from Baseline, Median: 0.000
  SHAQ Standard Disability Index: Day 12, Mean: 0.576
  SHAQ Standard Disability Index: Day 12, Median: 0.375
  SHAQ Standard Disability Index: Percent Change from Baseline, Mean: 7.50%
  SHAQ Standard Disability Index: Percent Change from Baseline, Median: 0.00%
  SHAQ VAS Breathing Problems: Baseline, Mean: 1.511
  SHAQ VAS Breathing Problems: Baseline, Median: 0.800
  SHAQ VAS Breathing Problems: Change from Baseline, Mean: −0.175
  SHAQ VAS Breathing Problems: Change from Baseline, Median: 0.000
  SHAQ VAS Breathing Problems: Day 12, Mean: 1.375
  SHAQ VAS Breathing Problems: Day 12, Median: 0.000
  SHAQ VAS Breathing Problems: Percent Change from Baseline, Mean: −26.05%
  SHAQ VAS Breathing Problems: Percent Change from Baseline, Median: −21.33%
  SHAQ VAS Finger Ulcers: Baseline, Mean: 0.656
  SHAQ VAS Finger Ulcers: Baseline, Median: 0.200
  SHAQ VAS Finger Ulcers: Change from Baseline, Mean: −0.267
  SHAQ VAS Finger Ulcers: Change from Baseline, Median: −0.100
  SHAQ VAS Finger Ulcers: Day 12, Mean: 0.389
  SHAQ VAS Finger Ulcers: Day 12, Median: 0.000
  SHAQ VAS Finger Ulcers: Percent Change from Baseline, Mean: −46.06%
  SHAQ VAS Finger Ulcers: Percent Change from Baseline, Median: −31.94%
  SHAQ VAS Intestinal Problems: Baseline, Mean: 2.444
  SHAQ VAS Intestinal Problems: Baseline, Median: 1.100
  SHAQ VAS Intestinal Problems: Change from Baseline, Mean: −1.228
  SHAQ VAS Intestinal Problems: Change from Baseline, Median: −0.250
  SHAQ VAS Intestinal Problems: Day 12, Mean: 1.217
  SHAQ VAS Intestinal Problems: Day 12, Median: 0.700
  SHAQ VAS Intestinal Problems: Percent Change from Baseline, Mean: −27.93%
  SHAQ VAS Intestinal Problems: Percent Change from Baseline, Median: −54.13%
  SHAQ VAS Overall Disease Severity: Baseline, Mean: 3.044
  SHAQ VAS Overall Disease Severity: Baseline, Median: 1.900
  SHAQ VAS Overall Disease Severity: Change from Baseline, Mean: −0.606
  SHAQ VAS Overall Disease Severity: Change from Baseline, Median: −0.700
  SHAQ VAS Overall Disease Severity: Day 12, Mean: 2.439
  SHAQ VAS Overall Disease Severity: Day 12, Median: 1.900
  SHAQ VAS Overall Disease Severity: Percent Change from Baseline, Mean: −24.68%
  SHAQ VAS Overall Disease Severity: Percent Change from Baseline, Median: −30.93%
  SHAQ VAS Pain: Baseline, Mean: 3.278
  SHAQ VAS Pain: Baseline, Median: 3.100
  SHAQ VAS Pain: Change from Baseline, Mean: −0.633
  SHAQ VAS Pain: Change from Baseline, Median: −0.700
  SHAQ VAS Pain: Day 12, Mean: 2.644
  SHAQ VAS Pain: Day 12, Median: 2.900
  SHAQ VAS Pain: Percent Change from Baseline, Mean: −20.07%
  SHAQ VAS Pain: Percent Change from Baseline, Median: −21.87%
  SHAQ VAS Raynaud's: Baseline, Mean: 2.733
  SHAQ VAS Raynaud's: Baseline, Median: 1.400
  SHAQ VAS Raynaud's: Change from Baseline, Mean: −0.414
  SHAQ VAS Raynaud's: Change from Baseline, Median: −0.100
  SHAQ VAS Raynaud's: Day 12, Mean: 2.319
  SHAQ VAS Raynaud's: Day 12, Median: 2.600
